This note sets out measurements from US20240376121A1, “COMPOUNDS AND USES THEREOF” (Foghorn Therapeutics Inc., priority 2021, published 2024).

In one experiment the target is T1, HiBit-BRM fusion protein (Homo sapiens, UniProt P51531).
T1 construct: expressed in transfected cells
Briefly: HiBiT-BRM cell-based degradation assay (Nano-Glo HiBiT Lytic Detection). To be noted: stable HeLa cell line expressing HiBiT-BRM, 24 h incubation; for BRM HiBit Degradation Maximum (%): top dose 30 μM; for DC50: read-out: BRM HiBit Degradation IC50. The procedure, abridged:
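HeLa cells stably expressing HiBiT-BRM were dosed with compounds (10-point 3-fold dilutions, 30 μM final top dose, duplicate) for 24 h. HiBiT signal was read by lytic LgBiT complementation luminescence. Percent degradation was normalised to DMSO (high control) and 2 μM of a reference BRM/BRG1 degrader (low control).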

The target of experiment [1] is T2, HiBit-BRG1 fusion protein (Homo sapiens, UniProt P51532).
T2 construct: expressed in transfected cells
T2 sequence (P51532 whole entry, the tested form may be a part): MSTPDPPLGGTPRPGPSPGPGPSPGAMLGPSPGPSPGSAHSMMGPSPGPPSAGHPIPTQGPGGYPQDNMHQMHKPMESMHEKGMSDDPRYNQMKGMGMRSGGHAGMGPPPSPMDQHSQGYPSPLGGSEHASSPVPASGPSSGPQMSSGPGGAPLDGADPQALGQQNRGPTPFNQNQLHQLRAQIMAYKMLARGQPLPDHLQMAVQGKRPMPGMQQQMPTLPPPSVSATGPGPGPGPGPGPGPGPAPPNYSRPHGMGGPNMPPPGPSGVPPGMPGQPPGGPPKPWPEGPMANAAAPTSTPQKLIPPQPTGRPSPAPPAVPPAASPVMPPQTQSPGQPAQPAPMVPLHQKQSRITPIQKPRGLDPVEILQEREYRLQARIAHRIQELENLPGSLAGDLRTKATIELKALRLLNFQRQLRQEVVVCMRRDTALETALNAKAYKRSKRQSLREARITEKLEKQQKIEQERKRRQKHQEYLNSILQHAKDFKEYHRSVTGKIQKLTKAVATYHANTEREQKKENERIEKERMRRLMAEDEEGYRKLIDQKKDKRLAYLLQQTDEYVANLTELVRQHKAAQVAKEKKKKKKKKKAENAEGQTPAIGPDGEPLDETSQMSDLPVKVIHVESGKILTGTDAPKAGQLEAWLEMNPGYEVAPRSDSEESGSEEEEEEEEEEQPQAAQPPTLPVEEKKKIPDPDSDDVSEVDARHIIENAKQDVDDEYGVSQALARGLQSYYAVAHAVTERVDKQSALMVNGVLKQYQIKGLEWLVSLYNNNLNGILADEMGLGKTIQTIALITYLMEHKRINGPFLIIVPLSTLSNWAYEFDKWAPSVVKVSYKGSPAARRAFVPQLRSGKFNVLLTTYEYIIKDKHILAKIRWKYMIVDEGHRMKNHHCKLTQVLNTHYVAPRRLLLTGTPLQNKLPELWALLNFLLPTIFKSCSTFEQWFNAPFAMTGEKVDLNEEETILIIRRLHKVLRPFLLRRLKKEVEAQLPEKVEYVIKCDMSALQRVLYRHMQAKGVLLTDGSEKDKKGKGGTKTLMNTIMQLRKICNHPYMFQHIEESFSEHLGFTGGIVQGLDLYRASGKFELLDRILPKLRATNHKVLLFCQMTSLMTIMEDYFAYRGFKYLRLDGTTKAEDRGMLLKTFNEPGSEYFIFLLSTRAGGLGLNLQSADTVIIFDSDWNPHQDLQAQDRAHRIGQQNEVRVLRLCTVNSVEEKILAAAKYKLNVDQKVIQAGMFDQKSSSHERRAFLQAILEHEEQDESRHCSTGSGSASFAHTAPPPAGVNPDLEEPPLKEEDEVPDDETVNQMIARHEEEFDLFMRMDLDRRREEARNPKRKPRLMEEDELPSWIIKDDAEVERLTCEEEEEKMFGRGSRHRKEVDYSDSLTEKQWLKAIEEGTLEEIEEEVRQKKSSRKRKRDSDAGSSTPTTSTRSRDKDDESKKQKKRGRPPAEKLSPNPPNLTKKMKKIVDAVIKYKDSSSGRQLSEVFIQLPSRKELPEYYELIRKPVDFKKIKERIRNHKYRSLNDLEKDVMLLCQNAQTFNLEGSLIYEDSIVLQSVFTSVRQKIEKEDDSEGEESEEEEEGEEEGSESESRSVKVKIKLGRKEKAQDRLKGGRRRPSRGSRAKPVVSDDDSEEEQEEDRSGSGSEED
Put plainly: HiBiT-BRG1 cell-based degradation assay (Nano-Glo HiBiT Lytic Detection). To be noted: stable HeLa cell line expressing HiBit-BRG1 and LgBit, 24 h incubation; for Dmax: top dose 30 μM, read-out: BRG1 HiBit Degradation Maximum (%); for DC50: read-out: BRMG1 HiBit Degradation IC50. The procedure, abridged:
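HeLa cells stably expressing HiBiT-BRG1 and LgBiT treated 24 h with 10-point 3-fold dilutions (top 30 μM, duplicate). Luminescence read after Nano-Glo HiBiT lytic reagent; % degradation relative to DMSO (high control) and 2 μM reference BRM/BRG1 degrader (low control).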

Structures are written as SMILES.

T1 sequence (P51531 whole entry, the tested form may be a part): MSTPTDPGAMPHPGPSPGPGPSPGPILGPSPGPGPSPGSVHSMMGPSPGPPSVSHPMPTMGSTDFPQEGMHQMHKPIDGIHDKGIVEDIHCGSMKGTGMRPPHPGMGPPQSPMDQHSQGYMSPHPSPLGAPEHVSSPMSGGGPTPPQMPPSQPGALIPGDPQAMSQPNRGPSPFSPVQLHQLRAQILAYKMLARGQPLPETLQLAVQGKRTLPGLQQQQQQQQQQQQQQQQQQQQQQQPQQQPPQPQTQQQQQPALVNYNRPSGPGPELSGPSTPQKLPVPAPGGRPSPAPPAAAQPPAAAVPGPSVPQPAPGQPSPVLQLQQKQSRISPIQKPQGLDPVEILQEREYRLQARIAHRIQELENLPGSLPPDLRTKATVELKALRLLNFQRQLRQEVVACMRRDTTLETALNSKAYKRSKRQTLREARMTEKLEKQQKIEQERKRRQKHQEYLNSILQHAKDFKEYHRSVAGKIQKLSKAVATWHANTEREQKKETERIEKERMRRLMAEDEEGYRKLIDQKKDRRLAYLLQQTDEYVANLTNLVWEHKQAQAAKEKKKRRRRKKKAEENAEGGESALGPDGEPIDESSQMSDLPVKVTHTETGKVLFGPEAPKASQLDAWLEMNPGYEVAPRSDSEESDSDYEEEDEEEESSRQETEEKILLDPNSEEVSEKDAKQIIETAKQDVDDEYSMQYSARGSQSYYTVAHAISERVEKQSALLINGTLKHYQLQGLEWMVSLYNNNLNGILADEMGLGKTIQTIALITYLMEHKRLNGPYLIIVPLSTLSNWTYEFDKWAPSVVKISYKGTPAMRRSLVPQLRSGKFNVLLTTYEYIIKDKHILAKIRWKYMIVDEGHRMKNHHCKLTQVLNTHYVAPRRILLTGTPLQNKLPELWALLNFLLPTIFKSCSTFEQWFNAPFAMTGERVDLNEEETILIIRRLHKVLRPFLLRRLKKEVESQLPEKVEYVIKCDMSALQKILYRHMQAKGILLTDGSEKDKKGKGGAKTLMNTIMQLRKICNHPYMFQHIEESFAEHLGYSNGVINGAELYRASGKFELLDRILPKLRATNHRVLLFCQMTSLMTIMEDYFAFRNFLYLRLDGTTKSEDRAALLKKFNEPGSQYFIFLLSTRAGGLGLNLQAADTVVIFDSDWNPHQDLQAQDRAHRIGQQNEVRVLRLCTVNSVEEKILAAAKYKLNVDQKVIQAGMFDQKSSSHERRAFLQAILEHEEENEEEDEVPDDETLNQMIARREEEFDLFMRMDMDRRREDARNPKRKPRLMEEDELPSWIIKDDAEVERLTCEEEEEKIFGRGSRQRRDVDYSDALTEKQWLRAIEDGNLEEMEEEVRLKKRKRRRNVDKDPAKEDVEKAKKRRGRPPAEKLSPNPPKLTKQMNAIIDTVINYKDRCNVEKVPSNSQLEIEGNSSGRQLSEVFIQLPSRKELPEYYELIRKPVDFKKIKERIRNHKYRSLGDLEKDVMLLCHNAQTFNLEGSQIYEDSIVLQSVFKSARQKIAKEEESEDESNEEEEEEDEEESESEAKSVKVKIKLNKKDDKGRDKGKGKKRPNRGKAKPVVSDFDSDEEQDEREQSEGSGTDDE

In the case of `Cc1ncsc1-c1ccc([C@H](C)NC(=O)[C@@H]2C[C@@H](O)CN2C(=O)[C@@H](c2cc(C3CCN(C(=O)[C@@H]4CCc5sc6nnc(-c7ccccc7O)cc6c5C4)CC3)no2)C(C)C)cc1` [Compound 48, (2S,4R)-4-hydroxy-1-((R)-2-(3-(1-((R)-3-(2-hydroxyphenyl)-5,6,7,8-tetrahydrobenzo[4,5]thieno[2,3-c]pyridazine-6-carbonyl)piperidin-4-yl)isoxazol-5-yl)-3-methylbutanoyl)-N-((S)-1-(4-(4-methylthiazol-5-yl)phenyl)ethyl)pyrrolidine-2-carboxamide], at HiBit-BRM fusion protein, the “BRM HiBit Degradation Maximum (%)” value is on record as “C (“C” indicates maximum degradation < 50%)” and the DC50 is at least 1000 nM. In experiment [1], the Dmax was below 50% and the DC50 was at least 1000 nM.

Regarding `Cc1ncsc1-c1ccc([C@H](C)NC(=O)[C@@H]2C[C@@H](O)CN2C(=O)[C@@H](c2cc(OCCN3CC4CC3CC4c3cc4cc(-c5ccccc5O)nnc4s3)no2)C(C)C)cc1` (stereo partly drawn) [Compound 67, (2S,4R)-4-hydroxy-1-((2R)-2-(3-(2-(5-(3-(2-hydroxyphenyl)thieno[2,3-c]pyridazin-6-yl)-2-azabicyclo[2.2.1]heptan-2-yl)ethoxy)isoxazol-5-yl)-3-methylbutanoyl)-N-((S)-1-(4-(4-methylthiazol-5-yl)phenyl)ethyl)pyrrolidine-2-carboxamide], at HiBit-BRM fusion protein, the “BRM HiBit Degradation Maximum (%)” value was “A (“A” indicates maximum degradation ≥ 75%)” and the DC50 was at least 100 nM. In experiment [1], the Dmax is below 50% and the DC50 was at least 1000 nM.

For the compound `Cc1ncsc1-c1ccc([C@H](C)NC(=O)[C@@H]2C[C@@H](O)CN2C(=O)[C@@H](c2cc(OCCN3CCN(c4cc5nnc(-c6ccccc6O)cc5s4)CC3)no2)C(C)C)cc1` [Compound 49, (2S,4R)-4-hydroxy-1-((R)-2-(3-(2-(4-(3-(2-hydroxyphenyl)thieno[3,2-c]pyridazin-6-yl)piperazin-1-yl)ethoxy)isoxazol-5-yl)-3-methylbutanoyl)-N-((S)-1-(4-(4-methylthiazol-5-yl)phenyl)ethyl)pyrrolidine-2-carboxamide], at HiBit-BRM fusion protein, the “BRM HiBit Degradation Maximum (%)” value is “A (“A” indicates maximum degradation ≥ 75%)” and the DC50 was below 10 nM. Besides, in experiment [1], the Dmax is at least 75% and the DC50 was at least 10 nM.

With `Cc1ncsc1-c1ccc([C@H](C)NC(=O)[C@@H]2C[C@@H](O)CN2C(=O)[C@@H](c2cc(N3CCC(C(=O)N4CC(c5cc6nnc(-c7ccccc7O)cc6s5)C4)CC3)no2)C(C)C)cc1` [Compound 99, (2S,4R)-4-hydroxy-1-((R)-2-(3-(4-(3-(3-(2-hydroxyphenyl)thieno[3,2-c]pyridazin-6-yl)azetidine-1-carbonyl)piperidin-1-yl)isoxazol-5-yl)-3-methylbutanoyl)-N-((S)-1-(4-(4-methylthiazol-5-yl)phenyl)ethyl)pyrrolidine-2-carboxamide], on HiBit-BRM fusion protein, the “BRM HiBit Degradation Maximum (%)” value is “A (“A” indicates maximum degradation ≥ 75%)” and the DC50 was at least 10 nM. In experiment [1], the Dmax is below 50% and the DC50 is at least 1000 nM.

Turning to `Cc1ncsc1-c1ccc([C@H](C)NC(=O)[C@@H]2C[C@@H](O)CN2C(=O)[C@@H](c2cc(OCCN3C[C@H]4C[C@@H](C3)[C@H]4c3cc4cc(-c5ccccc5O)nnc4s3)no2)C(C)C)cc1` [Compound 74, (2S,4R)-4-hydroxy-1-((R)-2-(3-(2-((1R,5S,6S)-6-(3-(2-hydroxyphenyl)thieno[2,3-c]pyridazin-6-yl)-3-azabicyclo[3.1.1]heptan-3-yl)ethoxy)isoxazol-5-yl)-3-methylbutanoyl)-N-((S)-1-(4-(4-methylthiazol-5-yl)phenyl)ethyl)pyrrolidine-2-carboxamide], at HiBit-BRM fusion protein, the “BRM HiBit Degradation Maximum (%)” value is “C (“C” indicates maximum degradation < 50%)” and the DC50 is at least 1000 nM. Further, in experiment [1], the Dmax was below 50% and the DC50 was at least 1000 nM.

Regarding `Cc1ncsc1-c1ccc(CNC(=O)[C@@H]2C[C@@H](O)CN2C(=O)[C@@H](NC(=O)CCN2CCC(c3cc4nnc(-c5ccccc5O)cc4s3)CC2)C(C)(C)C)cc1` [Compound 78, (2S,4R)-4-hydroxy-1-((S)-2-(3-(4-(3-(2-hydroxyphenyl)thieno[3,2-c]pyridazin-6-yl)piperidin-1-yl)propanamido)-3,3-dimethylbutanoyl)-N-(4-(4-methylthiazol-5-yl)benzyl)pyrrolidine-2-carboxamide], at HiBit-BRM fusion protein, the “BRM HiBit Degradation Maximum (%)” value is reported as “B (“B” indicates maximum degradation ≥ 50%)” and the DC50 is at least 100 nM. In experiment [1], the Dmax is at least 75% and the DC50 is at least 1000 nM.

Regarding `Cc1ncsc1-c1ccc([C@H](C)NC(=O)[C@@H]2C[C@@H](O)CN2C(=O)[C@@H](c2cc(N3C[C@H]4C[C@@H]3CN4C(=O)[C@@H]3CCc4sc5nnc(-c6ccccc6O)cc5c4C3)no2)C(C)C)cc1` [Compound 42, (2S,4R)-4-hydroxy-1-((R)-2-(3-((1R,4R)-5-((R)-3-(2-hydroxyphenyl)-5,6,7,8-tetrahydrobenzo[4,5]thieno[2,3-c]pyridazine-6-carbonyl)-2,5-diazabicyclo[2.2.1]heptan-2-yl)isoxazol-5-yl)-3-methylbutanoyl)-N—((S)-1-(4-(4-methylthiazol-5-yl)phenyl)ethyl)pyrrolidine-2-carboxamide], on HiBit-BRM fusion protein, the “BRM HiBit Degradation Maximum (%)” value is recorded as “A (“A” indicates maximum degradation ≥ 75%)” and the DC50 is at least 100 nM. In experiment [1], the Dmax was below 50% and the DC50 was at least 1000 nM.

Turning to `Cc1ncsc1-c1ccc([C@H](C)NC(=O)[C@@H]2C[C@@H](O)CN2C(=O)[C@@H](NC(=O)[C@H]2CC[C@H](c3sc4nnc(-c5ccccc5O)cc4c3C)CC2)C(C)(C)C)cc1` [Compound 51, (2S,4R)-4-hydroxy-1-((S)-2-((1r,4S)-4-(3-(2-hydroxyphenyl)-5-methylthieno[2,3-c]pyridazin-6-yl)cyclohexane-1-carboxamido)-3,3-dimethylbutanoyl)-N-((S)-1-(4-(4-methylthiazol-5-yl)phenyl)ethyl)pyrrolidine-2-carboxamide], on HiBit-BRM fusion protein, the “BRM HiBit Degradation Maximum (%)” value was “C (“C” indicates maximum degradation < 50%)” and the DC50 was at least 1000 nM. In experiment [1], the Dmax is below 50% and the DC50 is at least 1000 nM.

On to `Cc1ncsc1-c1ccc([C@H](C)NC(=O)[C@@H]2C[C@@H](O)CN2C(=O)[C@@H](c2cc(OCC(=O)N3CC(c4cc5nnc(-c6ccccc6O)cc5s4)C3)no2)C(C)C)cc1` [Compound 106, (2S,4R)-4-hydroxy-1-((R)-2-(3-(2-(3-(3-(2-hydroxyphenyl)thieno[3,2-c]pyridazin-6-yl)azetidin-1-yl)-2-oxoethoxy)isoxazol-5-yl)-3-methylbutanoyl)-N-((S)-1-(4-(4-methylthiazol-5-yl)phenyl)ethyl)pyrrolidine-2-carboxamide], for which, on HiBit-BRM fusion protein, the “BRM HiBit Degradation Maximum (%)” value was “C (“C” indicates maximum degradation < 50%)” and the DC50 is at least 1000 nM. In experiment [1], the Dmax was at least 50% and the DC50 is at least 1000 nM.

For `Cc1ncsc1-c1ccc([C@H](C)NC(=O)[C@@H]2C[C@@H](O)CN2C(=O)[C@@H](c2cc(O[C@@H]3CC[C@@H]3N3CCC(c4sc5nnc(-c6ccccc6O)cc5c4C)CC3)no2)C(C)C)cc1` [Compound 35, (2S,4R)-4-hydroxy-1-[(2R)-2-{3-[(1R,2S)-2-{4-[3-(2-hydroxyphenyl)-5-methylthieno[2,3-c]pyridazin-6-yl]piperidin-1-yl}cyclobutoxy]-1,2-oxazol-5-yl}-3-methylbutanoyl]-N-[(1S)-1-[4-(4-methyl-1,3-thiazol-5-yl)phenyl]ethyl]pyrrolidine-2-carboxamide], at HiBit-BRM fusion protein, the “BRM HiBit Degradation Maximum (%)” value is given as “A (“A” indicates maximum degradation ≥ 75%)” and the DC50 was at least 10 nM. For the same compound, in experiment [1], the Dmax was below 50% and the DC50 is at least 1000 nM.

As to `Cc1ncsc1-c1ccc([C@H](C)NC(=O)[C@@H]2C[C@@H](O)CN2C(=O)[C@@H](c2cc(N3CCC(N4CCC(c5sc6nnc(-c7ccccc7O)cc6c5C)CC4)CC3)no2)C(C)C)cc1` [Compound 96, (2S,4R)-4-hydroxy-1-((R)-2-(3-(4-(3-(2-hydroxyphenyl)-5-methylthieno[2,3-c]pyridazin-6-yl)-[1,4'-bipiperidin]-1'-yl)isoxazol-5-yl)-3-methylbutanoyl)-N-((S)-1-(4-(4-methylthiazol-5-yl)phenyl)ethyl)pyrrolidine-2-carboxamide], at HiBit-BRM fusion protein, the “BRM HiBit Degradation Maximum (%)” value was “A (“A” indicates maximum degradation ≥ 75%)” and the DC50 was below 10 nM. In addition, in experiment [1], the Dmax was below 50% and the DC50 was at least 1000 nM.

As for `Cc1ncsc1-c1ccc([C@H](C)NC(=O)[C@@H]2C[C@@H](O)CN2C(=O)[C@@H](NC(=O)c2cnc(N3CCC(c4sc5nnc(-c6ccccc6O)cc5c4C)CC3)nc2)C(C)(C)C)cc1` [Compound 65, N-((S)-1-((2S,4R)-4-hydroxy-2-(((S)-1-(4-(4-methylthiazol-5-yl)phenyl)ethyl)carbamoyl)pyrrolidin-1-yl)-3,3-dimethyl-1-oxobutan-2-yl)-2-(4-(3-(2-hydroxyphenyl)-5-methylthieno[2,3-c]pyridazin-6-yl)piperidin-1-yl)pyrimidine-5-carboxamide], at HiBit-BRM fusion protein, the “BRM HiBit Degradation Maximum (%)” value is listed as “A (“A” indicates maximum degradation ≥ 75%)” and the DC50 is at least 10 nM. Moreover, in experiment [1], the Dmax is below 50% and the DC50 was at least 1000 nM.
